Results: PubChem BioAssay (NCI)
Values joined by “and” are separate entries in the source; they are usually repeats but may differ in a detail not shown here. Equal entries are not always repeated.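 Exposure lasted 48 hours, with cells grown in 96-well plates and compounds tested at five concentrations. Here, GI50 denotes the concentration required for 50% inhibition of growth. TGI denotes the concentration required for complete inhibition of growth.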

Key:
Assay in all cases: DTP human tumour cell line panel, 48 h
[1] = test system: NCI/ADR-RES ovarian
[2] = test system: MCF7 breast
[3] = test system: MDA-MB-435
[4] = test system: LXFL 529 NSCLC
[5] = test system: KM20L2 colon
[6] = test system: MDA-N
[7] = test system: DMS 114 small cell lung
[8] = test system: XF 498 CNS

| Structure (SMILES) | GI50 [1] [µM] | TGI [1] [µM] | GI50 [2] | TGI [2] [µM] | GI50 [3] | TGI [3] | TGI [4] [µM] | TGI [5] [µM] | TGI [7] [µM] | also measured |
| --- | --- | --- | --- | --- | --- | --- | --- | --- | --- | --- |
| CC(C)CCN1c2nc(Nc3cc(F)c(O)c(F)c3)ncc2N(C)C(=O)C1C (stereo not drawn) | 7.81 | > 100 | 2.85 µM | 18.1 | 1.29 µM | 55.8 µM | – | – | – | – |
| Cc1ccc(S(=O)(=O)N(CC(=O)O)c2ccccc2)cc1 | – | – | – | – | – | – | > 100 | > 100 | – | – |
| O=c1c2sc(=S)n(-c3ccc(F)cc3)c2ncn1Cc1ccc(F)cc1F | > 100 | > 100 | 67.7 µM | > 100 | > 100 µM | > 100 µM | – | – | – | – |
| NC(=Nc1c([N+](=O)[O-])cnc2ccccc12)N1CCOCC1 | – | > 100 | – | > 100 | – | > 100 µM | – | – | – | TGI [6]: > 100 µM |
| CNC(=O)N(C)N=NCCCl | – | > 100 | – | > 100 | – | > 100 µM | > 100 | > 100 | > 100 | TGI [6]: > 100 µM |
| CCCCCCCCCCCCOC1C(C(COC2OC(C3COC(C)(C)O3)C3OC(C)(C)OC23)NC(=O)Nc2ccc(C(=O)O)cc2)OC2OC(C)(C)OC21 (stereo not drawn) | 10.9 | 24.8 | 2.84 µM | 10.8 | 2.63 µM | 7.91 µM | – | – | – | – |
| Cc1cc(CC(O)c2ccc(Cl)c(Cl)c2)nc(=O)[nH]1 (stereo not drawn) | – | – | – | – | – | – | 59.2 | > 100 | 26.8 | TGI [8]: 41.3 µM |
| O=C1NC(=O)C(c2cnc3ccccn23)=C1c1cn2c3c(cc(F)cc13)CN(C(=O)N1CCCCC1)CC2 | 19.7 | > 100 | < 0.01 µM | 21.1 | 14.6 µM | 40.3 µM | – | – | – | – |
| Cc1cc(N)c(C)c2c1[nH]c1ccc(O)cc12 | – | – | – | – | – | – | – | – | – | TGI [8]: > 100 µM |
| CCC[CH2][Sn]1([CH2]CCC)[O]N=C(c2ccccc2)C(c2ccccc2)[O]1 (stereo not drawn) | – | – | – | – | – | – | 1.23 | 8.74 | 2.18 | GI50 [7]: 0.965 µM; GI50 [4]: 0.316 µM; GI50 [5]: 2.54 µM |
| Cn1cc(CO)c2c1C(=O)C=C(N1CC1)C2=O | 0.0291 | 0.275 | < 0.01 µM | – | < 0.01 µM | 0.04 µM | – | – | – | – |
| Cc1nc2c(-c3cnc(N)nc3)nc(N3CCOCC3)nc2n1C(C)C | – | 4.81 | 0.0876 µM and 0.0298 µM | > 100 | 0.182 µM and 0.113 µM | 1.32 µM and 1.16 µM | – | – | – | – |
| Cc1ccc(NC(=O)C(=O)C(C(=O)c2ccc3ccccc3c2)C2OC(=O)c3ccccc32)cc1C (stereo not drawn) | – | – | – | – | – | – | 22 | > 100 | 41.3 | TGI [8]: 18.2 µM |
| C=C1C(=O)O[C@@H]2C[C@@H]1CC/C(C)=C/CC/C(C)=C/CC[C@@]2(C)O | 9.28 | 24.4 | 11.9 µM | 36.2 | 5.07 µM | 18.5 µM | – | – | – | – |
| CCCCCCNC(=O)c1cc(NCc2cc(O)ccc2O)ccc1O | 5.44 | 78.1 | 5.01 µM | 27.7 | 9.48 µM | 22.1 µM | – | – | – | – |
| CN(C)N=Nc1ccc(NC=O)cc1 | – | > 100 | – | > 100 | – | > 100 µM | – | – | – | TGI [6]: > 100 µM |
| CCOc1ccccc1C=C1c2ccccc2C(=O)c2ccccc21 | – | – | – | – | – | – | > 100 | – | 15.9 | – |
| COc1cc(C#CC(=O)OC/C=C/c2ccc3c(c2)OCO3)cc(OC)c1OC | – | 47.8 | – | 64.8 | – | 38.1 µM | – | – | – | TGI [6]: 45 µM |
| COc1ccc(C2C(Cl)C(=O)N2n2cnc3ccccc3c2=O)cc1 (stereo not drawn) | – | – | – | – | – | – | > 100 | > 100 | > 100 | TGI [8]: > 100 µM |
